In general, EC50 refers to the concentration at which the effect is half-maximal. As usually defined, the IC50 is the point on the concentration scale where inhibition reaches its midpoint.

Results on 3 molecules are retold here after patent publication US20230227474A1, “COMPOSITIONS AND METHODS FOR CORRECTION OF ABERRANT SPLICING” (SKYHAWK THERAPEUTICS, INC., priority 2019, published 2023).

Experiment [1] deals with SMN2. Nature of the experiment: Quantitative Splicing Assay (SMN). Type of experiment: cell-based. The note with it: Homo sapiens, Fibroblast, SMA patient fibroblasts (GM03813), 24 h. How it is done: Spinal muscular atrophy (SMA) patient fibroblasts (GM03813, Coriell) are plated in 96-well plates at 50,000 cells/well. Immediately after plating, cells are dosed with compounds for 24 h at concentrations ranging from 2.5 μM to 0.6 nM (0.1% DMSO). Treated cells are lysed and cDNA synthesized using the Fast Advanced Cells-to-Ct kit (Thermofisher A35378) according to the manufacturer's instructions. 2 μL of each cDNA are used in qPCR reactions. The qPCR reactions are prepared in 384-well plates in 10 μL volume, using TaqMan™ Fast Advanced Master Mix (ThermoFisher; 4444965) with primers and probes shown in the table below. Reactions are run in a Quant Studio 6 qPCR instrument with default settings.

In experiment [2] the test system is Huntingtin (HTT) transcripts. The experiment in a line: Quantitative Splicing Assay (HTT). Type of experiment: cell-based. The note with it: Homo sapiens, GM04724 (CAG 70/20) Huntington's disease patient lymphoblasts, 24 h. How it is done: GM04724 (CAG 70/20) Huntington's disease patient lymphoblasts (Coriell) are plated in 96-well v-bottom plates at 50,000 cells/well. Immediately after plating, cells are dosed with compound for 24 h at concentrations ranging from 2.5 uM to 0.15 nM (0.1% DMSO). Treated cells are lysed and cDNA synthesized using the Fast Advanced Cells-to-Ct kit (Thermofisher A35378) according to the manufacturer's instructions. 2 uL of each cDNA are used in qPCR reactions to confirm the compound-induced inclusion of a cryptic exon within intron 49 of the Huntingtin (HTT) transcripts. The qPCR reactions are prepared in 384-well plates in 10 uL volume, using TaqMan™ Fast Advanced Master Mix [ThermoFisher; 4444965] with primers and probes shown in the table below. Reactions are run in a Quant Studio 6 qPCR instrument with default settings.

Experiment [3] deals with mHTT protein. Nature of the experiment: mHTT Protein Assay (2B7-MW1, MSD). Format: cell-based, human. The note with it: GM04724 (CAG 70/20) Huntington's disease patient lymphoblast cells, 48 hours, read-out: HTT Potency - Protein: EC50 mHTT (average). How it is done: Compounds are tested on GM04724 (CAG 70/20) Huntington's disease patient lymphoblast cells at doses ranging from 10 μM to 0.6 nM. 4,500 cells/well are seeded in 384 well plates. One plate replica is carried out for parallel viability testing by CellTiter Glo (CTG). Compounds are incubated for 48 hours. mHTT protein levels are assessed by the 2B7-MW1 assay via Mesoscale Discovery (MSD) as previously reported (Macdonald et al., 2014). The antibody pair is comprised of previously characterized monoclonals (2B7 and MW1) interrogating two regions for HTT conformation and biological properties: the N17 domain and the polyQ domain (Baldo et al., 2012; Ko et., 2001). 2B7-MW1 is dependent on subject/animal specific levels of HTT at the time of treatment. 2B7-MW1 is dependent on polyQ expansion (e.g., the higher the expansion the higher the signal) and on mHTT size (e.g., a similar polyQ will give higher signal with smaller HTT size). The viability readout is carried out by CTG according to the manufacturer's instructions. The results are show in Table B-5.

Experiment [4] deals with SMN protein. The experiment in a line: SMN Protein Assay (MSD). Type of experiment: cell-based, human. The note with it: SMA patient fibroblasts (GM03813), 48 hours, read-out: SMN2 Potency- Protein: Protein FL EC50 (average). How it is done:
Compounds are tested on spinal muscular atrophy (SMA) patient fibroblasts (GM03813, Coriell) at doses ranging from 2.5 μM to 0.6 nM. 7000 cells/well are seeded in 96-well plates. Compounds are incubated for 48 hours and the cells are lysed with 100 μL of lysis buffer. 20 μL of lysate is used for SMN protein measurement by Mesoscale Discovery (MSD) assay developed by PharmOptima (Michigan). A standard curve prepared with SMN protein ranging from […] is used in each MSD plate to calculate the absolute SMN protein amount in each sample.

Read-outs that look alike come from different tables or passages of the source.

Consider `Cn1cc(-c2ccc(-c3cc4c(nn3)N([C@@H]3C[C@H]5CC[C@@H](C3)N5)CCC4)c(O)c2)cn1` [Compound 2, 2-(8-((1R,3s,5S)-8-azabicyclo[3.2.1]octan-3-yl)-5,6,7,8-tetrahydropyrido[2,3-c]pyridazin-3-yl)-5-(1-methyl-1H-pyrazol-4-yl)phenol], for which the EC50 in experiment [1] (qPCR SMN FL, read-out: SMN2 Potency- Splicing: Splicing FL EC50 (average)) was in the range of 16 to 50 nM; in experiment [2] (qPCR HTTcryp49b (cryptic exon within intron 49), read-out: HTT Potency - Splicing: E49b EC50 (average)), 0.01 to 15 nM; in experiment [2] (qPCR HTTex49_50, read-out: HTT Potency - Splicing: E49-50 EC50 (average)), 0.01 to 15 nM; in experiment [3] it was 0.01 to 15 nM; in experiment [4] it was 0.01 to 15 nM. Besides, in experiment [1] (qPCR SMN Δ7, read-out: SMN2 Potency- Splicing: Splicing D7 IC50 (average)), the IC50 lay within 0.01 to 15 nM.

`Oc1cc(-n2ccnc2)ccc1-c1cc2c(nn1)N([C@@H]1C[C@H]3CC[C@@H](C1)N3)CCO2` [Compound 3, 2-(8-((1R,3s,5S)-8-azabicyclo[3.2.1]octan-3-yl)-7,8-dihydro-6H-pyridazino[4,3-b][1,4]oxazin-3-yl)-5-(1H-imidazol-1-yl)phenol]: the EC50 in experiment [3] and in experiment [4] was 501 to 10000 nM throughout.

With `Oc1cc(-c2cn[nH]c2)ccc1-c1cc2c(nn1)N([C@@H]1C[C@H]3CC[C@@H](C1)N3)CCO2` [Compound 1, 2-(8-((1R,3s,5S)-8-azabicyclo[3.2.1]octan-3-yl)-7,8-dihydro-6H-pyridazino[4,3-b][1,4]oxazin-3-yl)-5-(1H-pyrazol-4-yl)phenol], the EC50 in experiment [3] and in experiment [4] was 501 to 10000 nM throughout.
